Measurements published in patent publication US20180325914A1, “INCREASING STORAGE OF VITAMIN A, VITAMIN D AND/OR LIPIDS” (Salk Institute for Biological Studies, priority 2014, published 2018).

Test system: primary HSCs
Conditions: Day_6_JQ1

Structure (SMILES): Cc1sc2c(c1C)C(c1ccc(Cl)cc1)=N[C@@H](CC(=O)OC(C)(C)C)c1nnc(C)n1-2 [JQ1, (S)-tert-butyl 2-(4-(4-chlorophenyl)-2,3,9-trimethyl-6H-thieno[3,2-f][1,2,4]triazolo[4,3-a][1,4]diazepin-6-yl)acetate]
- 1110067D22Rik value_2: 7.6991
- 9930013L23Rik value_2: 31.3095
- A430110N23Rik value_2: 1.529
- Acot11 value_2: 1.6538
- Acpl2 value_2: 7.205
- Adam8 value_2: 11.9385
- Adamts12 value_2: 17.1447
- Adcy1 value_2: 0.8092
- Adcy5 value_2: 0.9801
- Adcy7 value_2: 3.439
- Aif1l value_2: 1.208
- Akap5 value_2: 1.478
- Aldh1a2 value_2: 19.1605
- Aldh1l1 value_2: 1.536
- Aldh1l2 value_2: 7.698
- Ankrd55 value_2: 7.519
- Apbb1ip value_2: 18.5518
- Apbb1 value_2: 7.273
- Arhgef6 value_2: 2.025
- Arhgef25 value_2: 25.9937
- Arl5a value_2: 37.4802
- Arsb value_2: 16.7663
- Avpr1a value_2: 1.651
- B3galnt1 value_2: 2.653
- B4galt2 value_2: 15.1944
- Bag2 value_2: 14.4878
- Bdnf value_2: 4.6088
- Bnip3 value_2: 18.6877
- Boc value_2: 14.1708
- Cacng7 value_2: 2.276
- Casp12 value_2: 4
- Ccbe1 value_2: 26.2027
- Ccnd2 value_2: 143.49
- Ccng1 value_2: 163.356
- Cd276 value_2: 5.674
- Cdh11 value_2: 17.4722
- Celf2 value_2: 11.1573
- Cercam value_2: 9.775
- Chpf value_2: 51.0364
- Chst12 value_2: 44.2429
- Chsy3 value_2: 4.1726
- Cnrip1 value_2: 15.1406
- Col1a1 value_2: 830.694
- Col4a5 value_2: 36.069
- Col12a1 value_2: 37.8465
- Col16a1 value_2: 5.064
- Copz2 value_2: 47.0355
- Cplx2 value_2: 3.358
- Crispld2 value_2: 4.912
- Crlf1 value_2: 26.6612
- Csrp2 value_2: 137.115
- Cul7 value_2: 19.1665
- Cxx1c value_2: 13.5431
- D4Bwg0951e value_2: 30.19
- Ddah1 value_2: 10.4898
- Dhrs1 value_2: 30.0462
- Dmpk value_2: 26.4788
- Dnpep value_2: 41.0591
- Dpysl3 value_2: 14.2712
- Dynlrb1 value_2: 162.462
- Dzip1l value_2: 10.8578
- Emp2 value_2: 8.903
- Enpp5 value_2: 25.6268
- Ext1 value_2: 80.2965
- Extl3 value_2: 35.6167
- Fah value_2: 1.793
- Fam19a5 value_2: 1.344
- Fam20a value_2: 11.2001
- Fam38b value_2: 3.39
- Fam110c value_2: 13.4372
- Fam132a value_2: 4.331
- Fap value_2: 1.601
- Fbxw9 value_2: 14.3107
- Fkbp7 value_2: 40.2493
- Fmod value_2: 2.369
- Fndc1 value_2: 15.189
- Fndc4 value_2: 1.244
- Folr1 value_2: 1.905
- Foxc2 value_2: 1.453
- Foxf2 value_2: 1.6602
- Frzb value_2: 144.416
- Fstl3 value_2: 14.8692
- Fzd6 value_2: 2.328
- Gdf6 value_2: 25.9944
- Gm2a value_2: 22.5206
- Gm14420 value_2: 13.7546
- Gmpr value_2: 8.026
- Gpc1 value_2: 10.285
- Gpc4 value_2: 94.2819
- Gpr39 value_2: 22.0499
- Gpr133 value_2: 3.842
- Gpr180 value_2: 14.9448
- Gria4 value_2: 2.6
- Gys1 value_2: 11.4841
- Hk2 value_2: 9.851
- Hoxb2 value_2: 33.6747
- Hrct1 value_2: 3.228
- Hs6st2 value_2: 23.4423
- Hspb1 value_2: 104.396
- Hspg2 value_2: 105.328
- Igf2 value_2: 3.249
- Igfbp2 value_2: 2.5845
- Iglon5 value_2: 2.148
- Ikbip value_2: 68.3911
- Itga5 value_2: 44.6427
- Jub value_2: 23.4821
- Kank1 value_2: 15.8777
- Kazald1 value_2: 4.522
- Kcne4 value_2: 8.547
- Kdm5b value_2: 17.3352
- Kif21b value_2: 8.145
- Kif26b value_2: 3.17
- Klhl26 value_2: 25.6223
- Lclat1 value_2: 20.6695
- Lepre1 value_2: 61.4792
- Leprel1 value_2: 4.84
- Leprel2 value_2: 31.892
- Lgals1 value_2: 1464.5
- Lims2 value_2: 12.2591
- Lox13 value_2: 12.0376
- Loxl1 value_2: 78.0679
- Loxl2 value_2: 668.398
- Lrrn2 value_2: 1.8093
- Mageh1 value_2: 22.8542
- Man2b2 value_2: 26.9926
- Mpzl1 value_2: 88.2456
- Mrvi1 value_2: 2.602
- Myh10 value_2: 34.498
- Myh11 value_2: 6.328
- Myl6 value_2: 531.936
- Mylk value_2: 62.0714
- Myo1d value_2: 22.5024
- Myof value_2: 42.2087
- Ncam1 value_2: 8.073
- Ndrg2 value_2: 12.6911
- Nexn value_2: 6.343
- Nid2 value_2: 130.153
- Nts value_2: 3.21
- Numbl value_2: 22.4916
- Obsl1 value_2: 3.108
- P4ha1 value_2: 120.896
- Palld value_2: 17.5752
- Pcsk5 value_2: 4.88
- Pde1a value_2: 9.282
- Pdlim4 value_2: 4.7862
- Pfkfb4 value_2: 2.359
- Phlda3 value_2: 132.249
- Phldb2 value_2: 149.373
- Phyhd1 value_2: 3.552
- Pla2g15 value_2: 24.3031
- Plac8 value_2: 104.172
- Plekhg3 value_2: 18.1798
- Plp2 value_2: 16.6661
- Plscr2 value_2: 7.544
- Plscr4 value_2: 8.1813
- Pmepa1 value_2: 29.4329
- Pmm1 value_2: 54.8681
- Pmp22 value_2: 85.9788
- Podn value_2: 1.458
- Polr3k value_2: 22.8928
- Pon3 value_2: 19.5497
- Popdc2 value_2: 4.263
- Ppapdc1b value_2: 13.4067
- Ppp1r14a value_2: 20.201
- Pppde2 value_2: 20.4808
- Prdx2 value_2: 167.804
- Prickle1 value_2: 14.268
- Prrc1 value_2: 19.9334
- Psrc1 value_2: 6.874
- Pter value_2: 1.743
- Ptpla value_2: 12.4632
- Ptplad2 value_2: 8.106
- Pvrl2 value_2: 81.9103
- Pygl value_2: 3.275
- Rab7l1 value_2: 5.901
- Rab15 value_2: 1.498
- Rab34 value_2: 55.2701
- Rab3d value_2: 8.99
- Rftn2 value_2: 1.387
- Rhobtb3 value_2: 13.6471
- Rnft1 value_2: 17.8003
- Ror1 value_2: 6.1328
- Rprd1a value_2: 7.118
- Runx2 value_2: 3.741
- Ryk value_2: 55.3732
- S100a1 value_2: 70.3658
- Sardh value_2: 3.193
- Sat2 value_2: 5.26
- Sce1 value_2: 3.6703
- Selm value_2: 80.5867
- Sepx1 value_2: 93.1036
- Serpine2 value_2: 7.825
- Serpinh1 value_2: 1190.39
- Setd7 value_2: 32.7601
- Sfrp1 value_2: 33.2277
- Sgce value_2: 7.751
- Sh3gl3 value_2: 1.09
- Sh3kbp1 value_2: 10.1373
- Shisa3 value_2: 4.345
- Skp2 value_2: 4.997
- Slc2a10 value_2: 2.062
- Slc35a2 value_2: 23.1121
- Slc44a2 value_2: 59.6308
- Slit3 value_2: 39.3977
- Snai1 value_2: 35.4904
- Snta1 value_2: 25.2902
- Snx30 value_2: 13.1255
- Sparcl1 value_2: 5.629
- Speg value_2: 7.409
- Spp1 value_2: 226.746
- Srgap3 value_2: 1.389
- Srpx value_2: 2.6404
